Experimental findings from patent publication US4612330A, “Antiinflammatory method” (Eli Lilly and Company, priority 1985, dated 1986) are described below.

In test [1] the test system is hind paws of rats. The experiment in a line: carrageenin-induced edema test. Type of test: in vivo. The settings on record: for inhibition of paw swelling: 50 mg/kg, administered prior to carrageenin, vs contralateral (control) paws; for anti-inflammatory activity (in words): carrageenin-induced edema, rats. Here is the method: It has now been discovered that Punaglandin-1 and -2 are useful in the treatment of inflammation and arthritis in mammals. […] A. Winter, Proc. Soc. Exp. Biol. Med., 111, 544 (1962). In this method, inflammation is induced by injecting carrageenin into one of the hind paws of rats. Test compounds were administered prior to the carrageenin injection to determine the percent inhibition of the subsequent inflammation, in comparison with the animals' contralateral (control) paws.

In test [2] the test system is adjuvant-induced arthritis in rats, uninjected hind paw. The experiment in a line: Developing adjuvant-induced arthritis test in rats: uninjected hind paw volume. The note with it: 10 mg/kg I.P. × 29 daily doses; difference of areas under the curves of mean uninjected paw volumes, TB controls vs treated. Type of test: in vivo, male Lewis-Wistar rats.

Consider `CC/C=C\C/C=C\CC1(O)C=C(Cl)C(=O)C1C(OC(C)=O)C(OC(C)=O)C(CCCC(=O)OC)OC(C)=O` (centres unmarked) [Punaglandin-1, 5,6,7-tris(acetyloxy)-7-(4-chloro-2-hydroxy-2-[2(Z),5(Z)-octadienyl]-5-oxo-3-cyclopenten-1-yl)heptanoic acid, methyl ester], for which the figures for the “inhibition of paw swelling” value in test [1] (intraperitoneal) and in test [1] (subcutaneous) were 79.6% and 62.1%, respectively. Besides, in test [1], the “anti-inflammatory activity (in words)” value was “anti-inflammatory activity”. Also, the “% Inhibition of Uninjected Paw Volume Inflammation, Days 16 through 30” value in test [2] was 56.7%.
Consider `CCCCC/C=C\CC1(O)C=C(Cl)C(=O)C1C(OC(C)=O)C(OC(C)=O)C(CCCC(=O)OC)OC(C)=O` (centres unmarked) [Punaglandin-2, 5,6,7-tris(acetyloxy)-7-(4-chloro-2-hydroxy-2-[2-(Z)-octenyl]-5-oxo-3-cyclopenten-1-yl)heptanoic acid, methyl ester], for which the “anti-inflammatory activity (in words)” value in test [1] is recorded as “anti-inflammatory activity”.
